Key:
[1] = system: OR7 aptamer (DNA, aptamer) CAAGGAAAATCCTTCAACGAAGTGGG; assay: transmembrane electrochemical impedance spectroscopy (ADuCM350 impedance reader), Langmuir fit; conditions: 137 mM NaCl, 2.7 mM KCl, 5 mM MgCl2; PBS pH 7.4, 3% DMSO, room temperature; aptamer immobilised on membrane
[2] = system: OR7 aptamer (DNA, aptamer) CAAGGAAAATCCTTCAACGAAGTGGG; assay: transmembrane electrochemical impedance spectroscopy (commercial potentiostat), Langmuir fit; conditions: 137 mM NaCl, 2.7 mM KCl, 5 mM MgCl2; PBS pH 7.4, 3% DMSO, room temperature; aptamer immobilised on membrane
[3] = system: OR7 aptamer (DNA, aptamer) CAAGGAAAATCCTTCAACGAAGTGGG; assay: transmembrane electrochemical impedance spectroscopy (potentiostat and impedance reader); conditions: 137 mM NaCl, 2.7 mM KCl, 5 mM MgCl2; PBS pH 7.4, 3% DMSO, room temperature; aptamer immobilised on membrane; control, highest concentration not given

Row | SMILES | KD [1] [nM] | KD [2] [nM] | binding [3]
1 | CCN(CC)Cc1cc(Nc2ccnc3cc(Cl)ccc23)ccc1O | 4 | 2 | –
2 | CCN(CC)CCCC(C)Nc1ccnc2cc(Cl)ccc12 (stereo not drawn) | – | – | no

Source: paper PMC11767673 (2024)
